From article PMC3038857, “Using Nuclear Receptor Activity to Stratify Hepatocarcinogens” (PLoS ONE, 2011)
Read-outs that look alike come from different tables or passages of the source.

Columns and labels:
CYP1A1 = experiment: CLZD_CYP1A1: Change in expression of CYP1A1 (primary human hepatocytes); assay type: cell-based; conditions: 24 hr
Method: (§1) This is a collection of multiplexed gene expression assays focused on Phase I and II xenobiotic metabolizing enzymes and transporters. Human primary cell cultures were treated with chemicals at 5 concentrations (0.004-40 [drawing 42] M) for 6, 24 and 48 hr. Concentration- and time-response profiles of chemicals were measured by the expression of key nuclear receptor target genes, activities of CYP1A enzymes (EROD), and cell morphology. Fourteen gene targets were monitored by quantitative nuclease protection assay including: six representative cytochrome P-450 genes, four hepatic transporters, three Phase II conjugating enzymes, and one endogenous metabolism gene involved in cholesterol synthesis. The target genes associated with nuclear receptor pathways are as follows: [drawing 43] and [drawing 44] with [drawing 45]; [drawing 46] , [drawing 47] , [drawing 48] , [drawing 49] , [drawing 50] and [drawing 51] with [drawing 52]; [drawing 53] , [drawing 54] , [drawing 55] and [drawing 56] with [drawing 57]; [drawing 58] with [drawing 59]; and [drawing 60] with [drawing 61] . Assays were run in primary human hepatocyte cultures by CellzDirect Invitrogen Inc. (Durham, NC), in collaboration with EPA.
(§2) Multiplexed Gene Expression in Human Primary Hepatocytes: This is a collection of multiplexed gene expression assays focused on Phase I and II metabolic enzymes and transporters. […] Fourteen gene targets were monitored by quantitative nuclease protection assay: six representative cytochrome P450 genes, four hepatic transporters, three Phase II conjugating enzymes, and one endogenous metabolism gene involved in cholesterol synthesis. Cells were exposed at 5 concentrations (0.004-40 µM) for 6, 24 or 48 hr. Gene targets are sentinels for five nuclear receptor signaling pathways: AhR, CAR, PXR, FXR, and PPARα. All gene are associated with nuclear receptor pathways: CYP1A1 and CYP1A2 with AHR; ABCB1, ABCG2, CYP2B6, CYP2C9, CYP2C19 and UGT1A1 with CAR; CYP3A4, GSTA2, SLCO1B1 and SULT2A1 with PXR; HMGCS2 with PPARA; and ABCB11 with FXR. […] Detailed description of the methods, data and analysis methods for this dataset will be presented in a separate publication.

CYP2B6 = experiment: CLZD_CYP2B6: Change in expression of CYP2B6 (primary human hepatocytes); assay type: cell-based; conditions: 24 hr
Method: as §1, §2

CYP3A4 = experiment: CLZD_CYP3A4: Change in expression of CYP3A4 (primary human hepatocytes); assay type: cell-based; conditions: 24 hr
Method: as §1, §2

PXR (NR1I2) [1] = target: T1, PXR (NR1I2) (Homo sapiens, UniProt O75469); experiment: NVS_NR_hPXR: Human PXR Fluormone PXR (SXR) green (cell-free HTS); assay type: binding
T1 sequence (O75469 1-434): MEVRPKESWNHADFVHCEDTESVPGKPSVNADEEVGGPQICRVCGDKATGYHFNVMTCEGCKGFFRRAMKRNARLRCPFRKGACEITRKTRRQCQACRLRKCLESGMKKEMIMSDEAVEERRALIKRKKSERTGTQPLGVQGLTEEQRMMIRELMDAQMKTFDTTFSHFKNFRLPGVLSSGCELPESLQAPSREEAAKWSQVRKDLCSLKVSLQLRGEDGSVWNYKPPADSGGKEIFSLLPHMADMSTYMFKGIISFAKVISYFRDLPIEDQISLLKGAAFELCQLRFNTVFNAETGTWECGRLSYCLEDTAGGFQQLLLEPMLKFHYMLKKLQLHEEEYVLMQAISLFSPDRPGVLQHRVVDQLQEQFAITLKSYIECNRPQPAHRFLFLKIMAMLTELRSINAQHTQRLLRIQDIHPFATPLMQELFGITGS
Source text: These are a collection of biochemical assays measuring binding constants and enzyme inhibition values. Chemicals were initially screened at a single concentration in duplicate wells at a concentration of 10 [drawing 63] M for cytochrome P-450 assays and 25 [drawing 64] M for all others. […] These assays were run by Caliper Life Sciences (Hanover, MD) under contract to EPA. Short assay descriptions are available at: http://www.caliperls.com/products/contract-research/in-vitro/.
Cell-free HTS Assays: A collection of biochemical assays measuring binding constants and enzyme inhibition values. […] These assays were run by Caliper Life Sciences (Hanover, MD) under contract to EPA. Short assay descriptions are available at http://www.caliperls.com/products/contract-research/in-vitro/. Values for all endpoints were imported into GeneData Screener (Basel, Switzerland) and normalised to solvent controls from the same plate as the tested compounds and expressed as percent of neutral control. Concentration-response curves were fit in GeneData Screener (Basel, Switzerland) Condeseo module using the Hill equation and AC50 values were determined. […] Detailed description of the methods, data and analysis methods for this dataset are described in a separate publication.

Mouse Liver [2] = conditions: chronic study, mouse liver; ref ToxRefDB; cited from earlier work
Rat Liver [3] = conditions: ref ToxRefDB, cited from earlier work
Rat Liver [4] = conditions: ref ToxRefDB, cited from earlier work; remark: listed apart in the source
Rat Liver [5] = conditions: ref ToxRefDB, cited from earlier work; remark: listed apart in the source
PXR (NR1I2) [6] = target: T1, PXR (NR1I2); experiment: ATG_PXRE_CIS: Factorial reporter gene assay (HepG2); assay type: cell-based; parameters: endogenous in cells; host or cells: HepG2
Method: (§3) A multiple reporter transcription unit (MRTU) library consisting of 48 transcription factor binding sites was transfected into the HepG2 human liver hepatoma cell line. In addition to the cis-acting reporter genes (CIS), a modification of the approach was used to generate a trans-system (TRANS) with a mammalian one-hybrid assay consisting of an additional 25 MRTU library reporting the activity of nuclear receptor super-family members. […] These assays were performed by Attagene Inc. (Morrisville NC) under contract to EPA.
(§4) In addition to the cis-acting reporter genes (CIS), a modification of the approach was used to generate a trans-system (TRANS) with a mammalian one-hybrid assay consisting of an additional 25 MRTU library reporting the activity of nuclear receptor super-family members. […] Chemicals were then tested in the CIS and TRANS assays at seven concentrations starting at the MTC and followed by three-fold serial dilutions. These assays were performed by Attagene Inc. (Morrisville NC) under contract to EPA. Detailed description of the methods, data and analysis methods for this dataset will be presented in a separate publication.

[7] = target: T2, PPARG (peroxisome proliferator-activated receptor gamma) (Homo sapiens, UniProt P37231); experiment: ATG_PPARg_TRANS: Factorial reporter gene assay (HepG2); assay type: cell-based
T2 construct: expressed in transfected cells; host or cells: HepG2
T2 sequence (P37231 1-505): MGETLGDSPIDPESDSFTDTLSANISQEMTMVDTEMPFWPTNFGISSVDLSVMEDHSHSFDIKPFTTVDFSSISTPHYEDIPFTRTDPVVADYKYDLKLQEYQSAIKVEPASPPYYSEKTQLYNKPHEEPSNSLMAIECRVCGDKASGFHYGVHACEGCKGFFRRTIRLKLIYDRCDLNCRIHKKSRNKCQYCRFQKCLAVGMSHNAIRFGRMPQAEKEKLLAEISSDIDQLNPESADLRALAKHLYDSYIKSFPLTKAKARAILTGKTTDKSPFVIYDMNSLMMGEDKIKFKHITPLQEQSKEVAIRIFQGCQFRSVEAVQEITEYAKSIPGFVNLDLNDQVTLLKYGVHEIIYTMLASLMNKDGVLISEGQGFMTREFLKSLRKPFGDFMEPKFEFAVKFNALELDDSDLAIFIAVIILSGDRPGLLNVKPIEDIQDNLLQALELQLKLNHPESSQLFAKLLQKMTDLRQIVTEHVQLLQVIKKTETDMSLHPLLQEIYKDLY
Method: as §3, §4

Mouse Liver [8] = conditions: chronic study, mouse liver; ref ToxRefDB; cited from earlier work; remark: listed apart in the source
CYP1A2 = experiment: CLZD_CYP1A2: Change in expression of CYP1A2 (primary human hepatocytes); assay type: cell-based; conditions: 24 hr
Method: as §1, §2

PXR (NR1I2) [9] = target: T1, PXR (NR1I2); experiment: ATG_PXR_TRANS: Factorial reporter gene assay (HepG2); assay type: cell-based; parameters: endogenous in cells; host or cells: HepG2
Method: as §3, §4

Row | Compound | CLZD_CYP2B6_24 (CYP2B6) | CLZD_CYP3A4_24 (CYP3A4) | NVS_NR_hPXR (PXR (NR1I2) [1]) | CHR_Mouse_Liver_1_AnyLesion (Mouse Liver [2]) | CHR_Rat_Liver_1_AnyLesion (Rat Liver [3]; chronic study, rat liver) | CHR_Rat_Liver_2_PreneoplasticLesion (Rat Liver [4]; chronic study, rat liver) | CHR_Rat_Liver_3_NeoplasticLesion (Rat Liver [5]; chronic study, rat liver) | ATG_PXRE_CIS (PXR (NR1I2) [6]; HepG2 reporter) | ATG_PPARg_TRANS ([7]; HepG2 reporter) | ATG_PXRE_CIS (PXR (NR1I2) [6]; HepG2) | further results
1 | COc1nc(C)nc(NC(=O)NS(=O)(=O)c2ccccc2CCC(F)(F)F)n1 [r267] | 5.398 | 5.396 | 4.423 | 6 | 0 | 0 | 0 | 4.328 |  |  | CLZD_CYP1A1_24 (CYP1A1): 5.399
2 | COc1nc(C)nc(NC(=O)NS(=O)(=O)c2ccccc2CCC(F)(F)F)n1 [r268] |  |  | 4.469 | 6 | 0 | 0 | 0 | 4.509 |  |  | 
3 | CC(COc1ccc(Oc2ccccc2)cc1)Oc1ccccn1 (stereo not drawn) [r274] | 5.377 | 5.096 |  |  | 0 | 0 | 0 | 4.886 | 4.42 |  | 
4 | CCC/C(=N\OCC)C1=C(O)CC(CC(C)SCC)CC1=O (stereo not drawn) [r283] | 5.082 | 4.556 |  | 6 | 6 | 6 | 0 | 4.62 |  |  | CHR_Mouse_Liver_2_PreneoplasticLesion (Mouse Liver [8]): 6
5 | CCNc1nc(Cl)nc(NCC)n1 [r284] | 4.983 |  |  |  | 6 | 6 | 6 | 4.456 | 4.398 |  | CLZD_CYP1A1_24 (CYP1A1): 5.018; CLZD_CYP1A2_24 (CYP1A2): 5.016
6 | Cc1nn(-c2cc(NS(C)(=O)=O)c(Cl)cc2Cl)c(=O)n1C(F)F [r287] | 5.329 | 5.471 |  | 6 | 0 | 0 | 0 | 4.409 | 4.444 |  | ATG_PXR_TRANS (PXR (NR1I2) [9]; HepG2 reporter): 4.469
7 | N#CSCSC#N [row 206] | 5.076 |  | 5.324 |  |  |  |  |  |  | 5.699 | 
8 | CCSC(=O)N1CCCCCC1 [row 214] |  |  |  |  |  |  |  |  |  | 4.602 | CHR_Rat_Liver_1_AnyLesion (Rat Liver [3]; chronic rat study, liver): 0; CHR_Rat_Liver_2_PreneoplasticLesion (Rat Liver [4]; chronic rat study, liver): 0; CHR_Rat_Liver_3_NeoplasticLesion (Rat Liver [5]; chronic rat study, liver): 0; ATG_PXR_TRANS (PXR (NR1I2) [9]; HepG2): 4.208
9 | O=C(Nc1ccc([N+](=O)[O-])cc1Cl)c1cc(Cl)ccc1O [row 220] |  |  |  |  |  |  |  |  |  | 6.367 | ATG_PPARg_TRANS ([7]; HepG2): 6.252
